Assays:
[1] = system: barnyardgrass; assay: Test A preemergence; assay type: in vivo, Echinochloa crus-galli; details: for Barnyardgrass plant response rating: 500 g ai/ha
How it was run: (§1)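 Visual injury scored 0–100 (100 = complete control) against untreated controls about 10 days after treatment in a greenhouse. Test chemicals, formulated with surfactant in non-phytotoxic solvent, were sprayed on soil preemergence or on 2-10 cm, one- to two-leaf plants postemergence.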

[2] = system: large (Lg) crabgrass; assay: Test A preemergence; assay type: in vivo, Digitaria sanguinalis; details: for Crabgrass, Large plant response rating: 500 g ai/ha
How it was run: as §1

[3] = system: giant foxtail; assay: Test A preemergence; assay type: in vivo, Setaria faberii; details: for Foxtail, Giant plant response rating (0 to 100 scale) / Plant response rating, Foxtail, Giant: 125 g ai/ha
How it was run: as §1

[4] = system: morningglory; assay: Test A preemergence; assay type: in vivo, Ipomoea spp.; details: for Morningglory plant response rating (0 to 100 scale) / Plant response rating, Morningglory: 125 g ai/ha
How it was run: as §1

[5] = system: pigweed; assay: Test A preemergence; assay type: in vivo, Amaranthus retroflexus; details: for Pigweed plant response rating (0 to 100 scale) / Plant response rating, Pigweed: 125 g ai/ha
How it was run: as §1

[6] = system: velvetleaf; assay: Test A preemergence; assay type: in vivo, Abutilon theophrasti; details: for Velvetleaf plant response rating (0 to 100 scale) / Plant response rating, Velvetleaf: 125 g ai/ha
How it was run: as §1

[7] = system: wheat; assay: Test A preemergence; assay type: in vivo, Triticum aestivum; details: for Wheat plant response rating (0 to 100 scale) / Plant response rating, Wheat: 125 g ai/ha
How it was run: as §1

[8] = system: corn; assay: Test A preemergence; assay type: in vivo, Zea mays; details: for Corn plant response rating: 500 g ai/ha
How it was run: as §1

[9] = system: barnyardgrass; assay: Test A postemergence; assay type: in vivo, Echinochloa crus-galli
How it was run: as §1

[10] = system: large (Lg) crabgrass; assay: Test A postemergence; assay type: in vivo, Digitaria sanguinalis
How it was run: as §1

[11] = system: giant foxtail; assay: Test A postemergence; assay type: in vivo, Setaria faberii
How it was run: as §1

[12] = system: morningglory; assay: Test A postemergence; assay type: in vivo, Ipomoea spp.
How it was run: as §1

[13] = system: pigweed; assay: Test A postemergence; assay type: in vivo, Amaranthus retroflexus
How it was run: as §1

[14] = system: velvetleaf; assay: Test A postemergence; assay type: in vivo, Abutilon theophrasti
How it was run: as §1

[15] = system: wheat; assay: Test A postemergence; assay type: in vivo, Triticum aestivum
How it was run: as §1

[16] = system: corn; assay: Test A postemergence; assay type: in vivo, Zea mays
How it was run: as §1

[17] = system: rice; assay: Test B flooded paddy test; assay type: in vivo, Oryza sativa; details: Flood, 250 g ai/ha; 0 to 100 scale where 0 is no effect and 100 is complete control
How it was run: (§2)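 Post-emergence paddy-water application at the 2-leaf stage, with 3 cm flood kept for the whole test. Response was judged visually relative to controls after 13 to 15 greenhouse days, 0 indicating no effect and 100 complete control.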

[18] = system: sedge, umbrella; assay: Test B flooded paddy test; assay type: in vivo, Cyperus difformis; details: Flood, 250 g ai/ha; 0 to 100 scale where 0 is no effect and 100 is complete control
How it was run: as §2

[19] = system: Heteranthera limosa; assay: Test B flooded paddy test; assay type: in vivo; details: Flood, 250 g ai/ha; 0 to 100 scale where 0 is no effect and 100 is complete control
How it was run: as §2

[20] = system: barnyardgrass; assay: Test B flooded paddy test; assay type: in vivo, Echinochloa crus-galli; details: Flood, 250 g ai/ha; 0 to 100 scale where 0 is no effect and 100 is complete control
How it was run: as §2

[21] = 0 to 100 scale where 0 is no effect and 100 is complete control
[22] = 500 g ai/ha, 0 to 100 scale where 0 is no effect and 100 is complete control
[23] = 125 g ai/ha, 0 to 100 scale, 0 no effect, 100 complete control
[24] = 1000 g ai/ha, 0 to 100 scale, 0 no effect, 100 complete control
[25] = 1000 g ai/ha, 0 to 100 scale, 0 no effect, 100 complete control, approx. 10 days
[26] = 125 g ai/ha, 0 to 100 scale where 0 is no effect and 100 is complete control
[27] = 0 to 100 scale, 0 no effect, 100 complete control, approx. 10 days
[28] = 500 g ai/ha, 0 to 100 scale, 0 no effect, 100 complete control, approx. 10 days
[29] = 500 g ai/ha, 0 to 100 scale, 0 no effect, 100 complete control

Compound: CC1(C)OB(c2cnn(-c3c(C#N)cccc3Oc3ncc(Cl)cn3)c2)OC1(C)C [Compound 285]
- Barnyardgrass plant response rating (0 to 100 scale, 0 is no effect, 100 is complete control) ([1]; 125 g ai/ha): 0
- Barnyardgrass plant response rating [1, 21]: 30
- Crabgrass, Large plant response rating (0 to 100 scale) ([2]; 125 g ai/ha): 80
- Crabgrass, Large plant response rating [2, 21]: 100
- Foxtail, Giant plant response rating (0 to 100 scale) [3]: 20
- Foxtail, Giant plant response rating [3, 22]: 100
- Morningglory plant response rating (0 to 100 scale) [4]: 0
- Morningglory plant response rating [4, 22]: 40
- Pigweed plant response rating (0 to 100 scale) [5]: 80
- Pigweed plant response rating [5, 22]: 100
- Velvetleaf plant response rating (0 to 100 scale) [6]: 10
- Velvetleaf plant response rating [6, 22]: 40
- Wheat plant response rating (0 to 100 scale) [7]: 0
- Wheat plant response rating [7, 22]: 20
- Corn plant response rating (0 to 100 scale) ([8]; 125 g ai/ha): 0
- Corn plant response rating [8, 21]: 20
- Plant response rating, Barnyardgrass [9, 23]: 0
- Plant response rating, Barnyardgrass [9, 22]: 30
- Plant response rating, Crabgrass, Large [10, 23]: 10
- Plant response rating, Crabgrass, Large [10, 22]: 40
- Plant response rating, Foxtail, Giant [11, 23]: 0
- Plant response rating, Foxtail, Giant [11, 22]: 60
- Plant response rating, Morningglory [12, 23]: 30
- Plant response rating, Morningglory [12, 22]: 40
- Plant response rating, Pigweed [13, 23]: 80
- Plant response rating, Pigweed [13, 22]: 100
- Plant response rating, Velvetleaf [14, 23]: 30
- Plant response rating, Velvetleaf [14, 22]: 80
- Plant response rating, Wheat [15, 23]: 0
- Plant response rating, Wheat [15, 22]: 20
- Plant response rating, Corn [16, 23]: 0
- Plant response rating, Corn [16, 22]: 30
- Plant response rating, Rice [17]: 0
- Plant response rating, Sedge, Umbrella [18]: 0
- Plant response rating, Ducksalad [19]: 0
- Plant response rating, Barnyardgrass [20]: 0

Compound: Clc1cnc(Oc2cccc(I)c2-n2cc(Br)cn2)nc1 [Compound 66]
- Plant response rating, Barnyardgrass [1, 24]: 90
- Plant response rating, Crabgrass, Large [2, 24]: 100
- Foxtail, Giant plant response rating [3, 25]: 100
- Morningglory plant response rating [4, 25]: 40
- Pigweed plant response rating [5, 25]: 100
- Velvetleaf plant response rating [6, 25]: 90
- Wheat plant response rating [7, 25]: 10
- Plant response rating, Corn [8, 24]: 30
- Plant response rating, Barnyardgrass [9, 24]: 80
- Plant response rating, Crabgrass, Large [10, 24]: 100
- Plant response rating, Foxtail, Giant [11, 24]: 100
- Plant response rating, Morningglory [12, 24]: 100
- Plant response rating, Pigweed [13, 24]: 100
- Plant response rating, Velvetleaf [14, 24]: 100
- Plant response rating, Wheat [15, 24]: 20
- Plant response rating, Corn [16, 24]: 40
- Plant response rating, Rice [17]: 0
- Plant response rating, Sedge, Umbrella [18]: 0
- Plant response rating, Ducksalad [19]: 30
- Plant response rating, Barnyardgrass [20]: 0

Compound: O=[N+]([O-])c1cccc(Oc2ncc(Cl)cn2)c1-n1cc(Br)cn1 [Compound 63]
- Plant response rating, Barnyardgrass [1, 26]: 0
- Barnyardgrass plant response rating [1, 27]: 70
- Plant response rating, Crabgrass, Large [2, 26]: 80
- Crabgrass, Large plant response rating [2, 27]: 100
- Plant response rating, Foxtail, Giant [3, 21]: 20
- Foxtail, Giant plant response rating [3, 28]: 100
- Plant response rating, Morningglory [4, 21]: 0
- Morningglory plant response rating [4, 28]: 0
- Plant response rating, Pigweed [5, 21]: 90
- Pigweed plant response rating [5, 28]: 100
- Plant response rating, Velvetleaf [6, 21]: 0
- Velvetleaf plant response rating [6, 28]: 20
- Plant response rating, Wheat [7, 21]: 0
- Wheat plant response rating [7, 28]: 0
- Plant response rating, Corn [8, 26]: 0
- Corn plant response rating [8, 27]: 0
- Plant response rating, Barnyardgrass [9, 26]: 30
- Plant response rating, Barnyardgrass [9, 29]: 70
- Plant response rating, Crabgrass, Large [10, 26]: 30
- Plant response rating, Crabgrass, Large [10, 29]: 90
- Plant response rating, Foxtail, Giant [11, 26]: 20
- Plant response rating, Foxtail, Giant [11, 29]: 80
- Plant response rating, Morningglory [12, 26]: 30
- Plant response rating, Morningglory [12, 29]: 80
- Plant response rating, Pigweed [13, 26]: 70
- Plant response rating, Pigweed [13, 29]: 100
- Plant response rating, Velvetleaf [14, 26]: 60
- Plant response rating, Velvetleaf [14, 29]: 100
- Plant response rating, Wheat [15, 26]: 0
- Plant response rating, Wheat [15, 29]: 10
- Plant response rating, Corn [16, 26]: 0
- Plant response rating, Corn [16, 29]: 30
- Plant response rating, Rice [17]: 0
- Plant response rating, Sedge, Umbrella [18]: 0
- Plant response rating, Ducksalad [19]: 0
- Plant response rating, Barnyardgrass [20]: 0

Compound: O=Cc1cccc(Oc2ncc(Cl)cn2)c1-n1cc(I)cn1 [Compound 182]
- Barnyardgrass plant response rating (0 to 100 scale, 0 is no effect, 100 is complete control) ([1]; 125 g ai/ha): 0
- Barnyardgrass plant response rating [1, 21]: 20
- Crabgrass, Large plant response rating (0 to 100 scale) ([2]; 125 g ai/ha): 0
- Crabgrass, Large plant response rating [2, 21]: 30
- Foxtail, Giant plant response rating (0 to 100 scale) [3]: 0
- Foxtail, Giant plant response rating [3, 22]: 20
- Morningglory plant response rating (0 to 100 scale) [4]: 0
- Morningglory plant response rating [4, 22]: 0
- Pigweed plant response rating (0 to 100 scale) [5]: 90
- Pigweed plant response rating [5, 22]: 100
- Velvetleaf plant response rating (0 to 100 scale) [6]: 0
- Velvetleaf plant response rating [6, 22]: 0
- Wheat plant response rating (0 to 100 scale) [7]: 0
- Wheat plant response rating [7, 22]: 0
- Corn plant response rating (0 to 100 scale) ([8]; 125 g ai/ha): 0
- Corn plant response rating [8, 21]: 0
- Barnyardgrass plant response rating [9, 26]: 0
- Plant response rating, Barnyardgrass [9, 22]: 0
- Crabgrass, Large plant response rating [10, 26]: 0
- Plant response rating, Crabgrass, Large [10, 22]: 0
- Foxtail, Giant plant response rating [11, 26]: 0
- Plant response rating, Foxtail, Giant [11, 22]: 0
- Morningglory plant response rating [12, 26]: 0
- Plant response rating, Morningglory [12, 22]: 0
- Pigweed plant response rating [13, 26]: 30
- Plant response rating, Pigweed [13, 22]: 90
- Velvetleaf plant response rating [14, 26]: 30
- Plant response rating, Velvetleaf [14, 22]: 30
- Wheat plant response rating [15, 26]: 0
- Plant response rating, Wheat [15, 22]: 0
- Corn plant response rating [16, 26]: 0
- Plant response rating, Corn [16, 22]: 0
- Plant response rating, Rice [17]: 0
- Plant response rating, Sedge, Umbrella [18]: 0
- Plant response rating, Ducksalad [19]: 0
- Plant response rating, Barnyardgrass [20]: 0

Compound: C=Cc1cnn(-c2ccccc2Oc2ncc(Cl)cn2)c1 [Compound 31]
- Plant response rating, Barnyardgrass [1, 26]: 20
- Barnyardgrass plant response rating [1, 27]: 50
- Plant response rating, Crabgrass, Large [2, 26]: 50
- Crabgrass, Large plant response rating [2, 27]: 90
- Plant response rating, Foxtail, Giant [3, 21]: 20
- Foxtail, Giant plant response rating [3, 28]: 90
- Plant response rating, Morningglory [4, 21]: 0
- Morningglory plant response rating [4, 28]: 0
- Plant response rating, Pigweed [5, 21]: 40
- Pigweed plant response rating [5, 28]: 60
- Plant response rating, Velvetleaf [6, 21]: 50
- Velvetleaf plant response rating [6, 28]: 90
- Plant response rating, Wheat [7, 21]: 0
- Wheat plant response rating [7, 28]: 0
- Plant response rating, Corn [8, 26]: 0
- Corn plant response rating [8, 27]: 0
- Plant response rating, Barnyardgrass [9, 26]: 10
- Plant response rating, Barnyardgrass [9, 29]: 50
- Plant response rating, Crabgrass, Large [10, 26]: 50
- Plant response rating, Crabgrass, Large [10, 29]: 60
- Plant response rating, Foxtail, Giant [11, 26]: 40
- Plant response rating, Foxtail, Giant [11, 29]: 50
- Plant response rating, Morningglory [12, 26]: 0
- Plant response rating, Morningglory [12, 29]: 30
- Plant response rating, Pigweed [13, 26]: 40
- Plant response rating, Pigweed [13, 29]: 70
- Plant response rating, Velvetleaf [14, 26]: 100
- Plant response rating, Velvetleaf [14, 29]: 100
- Plant response rating, Wheat [15, 26]: 0
- Plant response rating, Wheat [15, 29]: 0
- Plant response rating, Corn [16, 26]: 0
- Plant response rating, Corn [16, 29]: 20
- Plant response rating, Rice [17]: 25
- Plant response rating, Sedge, Umbrella [18]: 30
- Plant response rating, Ducksalad [19]: 80
- Plant response rating, Barnyardgrass [20]: 0

— patent publication US9695155B2, “Herbicidal substituted pyrimidinyloxy benzene compounds” (E. I. DU PONT DE NEMOURS AND COMPANY, priority 2013, dated 2017)
